Drawing on US11014911B2, “CDK2 inhibitors” (Pfizer Inc., priority 2019, dated 2021), this text covers Ki for 30 compounds.

The test deals with CDK2/Cyclin E1 full length (Homo sapiens (Human), UniProt P24941). The experiment in a line: CDK2/Cyclin E1 full length mobility shift assay. Format: biochemical.

For `CC1(NC(=O)O[C@@H]2CC[C@H](c3cc(NC(=O)Cc4ccc(C(F)(F)F)cn4)n[nH]3)C2)CC1` [Example 445, (1R,3S)-3-[3-({[5-(trifluoromethyl)pyridin-2-yl]acetyl}amino)-1H-pyrazol-5-yl]cyclopentyl (1-methylcyclopropyl)carbamate], the inhibitory constant (Ki) turned out to be 0.6 nM.

On to `CC1(NC(=O)O[C@@H]2CC[C@H](c3cc(NC(=O)Cc4cn(CC(F)(F)F)nn4)n[nH]3)C2)CC1` [Example 446, (1R,3S)-3-[3-({[1-(2,2,2-trifluoroethyl)-1H-1,2,3-triazol-4-yl]acetyl}amino)-1H-pyrazol-5-yl]cyclopentyl (1-methylcyclopropyl)carbamate], for which the inhibition constant (Ki) amounted to 1.7 nM.

With `CCC1(NC(=O)O[C@@H]2CC[C@H](c3cc(NC(=O)Cc4ncc(C)o4)n[nH]3)C2)CC1` [Example 448, (1R,3S)-3-(3-{[(5-methyl-1,3-oxazol-2-yl)acetyl]amino}-1H-pyrazol-5-yl)cyclopentyl (1-ethylcyclopropyl)carbamate], the Ki is 0.29 nM.

Turning to `CCC1(NC(=O)O[C@@H]2CC[C@H](c3cc(NC(=O)Cc4cnc(C)cn4)n[nH]3)C2)CC1` [Example 449, (1R,3S)-3-(3-{[(5-methylpyrazin-2-yl)acetyl]amino}-1H-pyrazol-5-yl)cyclopentyl (1-ethylcyclopropyl)carbamate], the Ki is 0.39 nM.

For `CCC1(NC(=O)O[C@@H]2CC[C@H](c3cc(NC(=O)Cc4cnc(OC)cn4)n[nH]3)C2)CC1` [Example 450, (1R,3S)-3-(3-{[(5-methoxypyrazin-2-yl)acetyl]amino}-1H-pyrazol-5-yl)cyclopentyl (1-ethylcyclopropyl)carbamate], the inhibition constant (Ki) came out at 0.38 nM.

In the case of `O=C(Cc1ccon1)Nc1cc([C@H]2CC[C@@H](OC(=O)NC3(CC(F)(F)F)CC3)C2)[nH]n1` [Example 451, (1R,3S)-3-{3-[(1,2-oxazol-3-ylacetyl)amino]-1H-pyrazol-5-yl}cyclopentyl [1-(2,2,2-trifluoroethyl)cyclopropyl] carbamate], the inhibition constant (Ki) came out at 0.46 nM.

Turning to `Cc1ccc(C(=O)Nc2cc([C@H]3CC[C@@H](OC(=O)NC4(CC(F)(F)F)CC4)C3)[nH]n2)cn1` [Example 452, (1R,3S)-3-(3-{[(6-methylpyridin-3-yl)carbonyl]amino}-1H-pyrazol-5-yl)cyclopentyl [1-2,2,2-trifluoroethyl)cyclopropyl] carbamate], the Ki is 0.51 nM.

Consider `Cc1cc(CC(=O)Nc2cc([C@H]3CC[C@@H](OC(=O)NC4(CC(F)(F)F)CC4)C3)[nH]n2)on1` [Example 453, (1R,3S)-3-(3-{[(3-methyl-1,2-oxazol-5-yl)acetyl]amino}-1H-pyrazol-5-yl)cyclopentyl [1-(2,2,2-trifluoroethyl)cyclopropyl]carbamate], for which the Ki worked out at 0.29 nM.

`Cc1cnc(CC(=O)Nc2cc([C@H]3CC[C@@H](OC(=O)NC4(CC(F)(F)F)CC4)C3)[nH]n2)o1` [Example 454, (1R,3S)-3-(3-{[(5-methyl-1,3-oxazol-2-yl)acetyl]amino}-1H-pyrazol-5-yl)cyclopentyl[1-(2,2,2-trifluoroethyl)cyclopropyl]carbamate]: the Ki turned out to be 0.48 nM.

With `COc1cnc(CC(=O)Nc2cc([C@H]3CC[C@@H](OC(=O)NC4(CC(F)(F)F)CC4)C3)[nH]n2)cn1` [Example 456, (1R,3S)-3-(3-{[(5-methoxypyrazin-2-yl)acetyl]amino}-1H-pyrazol-5-yl)cyclopentyl [1-2,2,2-trifluoroethyl)cyclopropyl] carbamate], the inhibition constant (Ki) was 0.38 nM.

`COCc1cc(C(=O)Nc2cc([C@H]3CC[C@@H](OC(=O)NC4(CC(F)(F)F)CC4)C3)[nH]n2)n(C)n1` [Example 457, (1R,3S)-3-[3-({[3-(methoxymethyl)-1-methyl-1H-pyrazol-5-yl]carbonyl}amino)-1H-pyrazol-5-yl]cyclopentyl [1-(2,2,2-trifluoroethyl)cyclopropyl] carbamate]: the Ki came to 0.38 nM.

As for `O=C(Cc1ccno1)Nc1cc([C@H]2CC[C@@H](OC(=O)NC3CCC3)C2)[nH]n1` [Example 458, (1R,3S)-3-{3-[(1,2-oxazol-5-ylacetyl)amino]-1H-pyrazol-5-yl}cyclopentyl cyclobutylcarbamate], the inhibition constant (Ki) stood at 3.07 nM.

Regarding `Cc1nnc(CC(=O)Nc2cc([C@H]3CC[C@@H](OC(=O)NC4(C)CCC4)C3)[nH]n2)o1` [Example 459, (1R,3S)-3-(3-{[(5-methyl-1,3,4-oxadiazol-2-yl)acetyl]amino}-1H-pyrazol-5-yl)cyclopentyl (1-methylcyclobutyl)carbamate], the Ki was 0.32 nM.

With `C[C@H]1CCC[C@H]1NC(=O)O[C@@H]1CC[C@H](c2cc(NC(=O)Cc3ccno3)n[nH]2)C1` [Example 461, (1R,3S)-3-{3-[(1,2-oxazol-5-ylacetyl)amino]-1H-pyrazol-5-yl}cyclopentyl [(1R,2S)-2-methylcyclopentyl]carbamate], the inhibition constant Ki was 1.75 nM.

With `Cc1ncc(CC(=O)Nc2cc([C@H]3CC[C@@H](OC(=O)N[C@@H]4CCC[C@@H]4C)C3)[nH]n2)o1` [Example 462, (1R,3S)-3-(3-{[(2-methyl-1,3-oxazol-5-yl)acetyl]amino}-1H-pyrazol-5-yl)cyclopentyl [(1R,2S)-2-methylcyclopentyl]carbamate], the inhibition constant (Ki) was 1.74 nM.

In the case of `Cc1ncc(CC(=O)Nc2cc([C@H]3CC[C@@H](OC(=O)N[C@H]4CCC[C@H]4C)C3)[nH]n2)s1` [Example 464, (1R,3S)-3-(3-{[(2-methyl-1,3-thiazol-5-yl)acetyl]amino}-1H-pyrazol-5-yl)cyclopentyl [(1S,2R)-2-methylcyclopentyl]carbamate], the inhibition constant Ki turned out to be 2.63 nM.

Take `O=C(Cc1ccno1)Nc1cc([C@H]2CC[C@@H](OC(=O)NCC3CC3)C2)[nH]n1` [Example 465, (1R,3S)-3-{3-[(1,2-oxazol-5-ylacetyl)amino]-1H-pyrazol-5-yl}cyclopentyl (cyclopropylmethyl)carbamate]: the Ki is 1.95 nM.

Consider `C[C@H](NC(=O)O[C@@H]1CC[C@H](c2cc(NC(=O)Cc3ccon3)n[nH]2)C1)C1CC1` [Example 466, (1R,3S)-3-{3-[(1,2-oxazol-3-ylacetyl)amino]-1H-pyrazol-5-yl}cyclopentyl [(1S)-1-cyclopropylethyl]carbamate], for which the inhibition constant Ki is 1.02 nM.

As to `C[C@@H](NC(=O)O[C@@H]1CC[C@H](c2cc(NC(=O)Cc3ccon3)n[nH]2)C1)C1CC1` [Example 467, (1R,3S)-3-{3-[(1,2-oxazol-3-ylacetyl)amino]-1H-pyrazol-5-yl}cyclopentyl [(1R)-1-cyclopropylethyl]carbamate], the Ki was determined as 1.2 nM.

For `Cc1cc(CC(=O)Nc2cc([C@H]3CC[C@@H](OC(=O)N[C@@H](C)C4CC4)C3)[nH]n2)on1` [Example 468, (1R,3S)-3-(3-{[(3-methyl-1,2-oxazol-5-yl)acetyl]amino}-1H-pyrazol-5-yl)cyclopentyl [(1S)-1-cyclopropylethyl]carbamate], the Ki was found to be 0.35 nM.

Take `Cc1cc(CC(=O)Nc2cc([C@H]3CC[C@@H](OC(=O)N[C@H](C)C4CC4)C3)[nH]n2)on1` [Example 469, (1R,3S)-3-(3-{[(3-methyl-1,2-oxazol-5-yl)acetyl]amino}-1H-pyrazol-5-yl)cyclopentyl [(1R)-1-cyclopropylethyl]carbamate]: the inhibitory constant (Ki) was 0.31 nM.

Turning to `Cc1cnc(CC(=O)Nc2cc([C@H]3CC[C@@H](OC(=O)N[C@@H](C)C4CC4)C3)[nH]n2)cn1` [Example 470, (1R,3S)-3-(3-{[(5-methylpyrazin-2-yl)acetyl]amino}-1H-pyrazol-5-yl)cyclopentyl [(1S)-1-cyclopropylethyl]carbamate], the Ki stood at 0.83 nM.

For the compound `Cc1cnc(CC(=O)Nc2cc([C@H]3CC[C@@H](OC(=O)N[C@H](C)C4CC4)C3)[nH]n2)cn1` [Example 471, (1R,3S)-3-(3-{[(5-methylpyrazin-2-yl)acetyl]amino}-1H-pyrazol-5-yl)cyclopentyl [(1R)-1-cyclopropylethyl]carbamate], the Ki turned out to be 1.43 nM.

Take `COc1cnc(CC(=O)Nc2cc([C@H]3CC[C@@H](OC(=O)N[C@H](C)C4CC4)C3)[nH]n2)cn1` [Example 472, (1R,3S)-3-(3-{[(5-methoxypyrazin-2-yl)acetyl]amino}-1H-pyrazol-5-yl)cyclopentyl [(1R)-1-cyclopropylethyl]carbamate]: the inhibition constant Ki was found to be 1.17 nM.

As for `CC1(NC(=O)O[C@@H]2CC[C@H](c3cc(NC(=O)CC4COc5ccccc54)n[nH]3)C2)CCOC1` (stereo partly drawn) [Example 491, (1R,3S)-3-(3-{[(3ξ)-2,3-dihydro-1-benzofuran-3-ylacetyl]amino}-1H-pyrazol-5-yl)cyclopentyl [(3ξ)-3-methyltetrahydrofuran-3-yl]carbamate], the Ki is 3.87 nM.

As to `COc1cc(CC(=O)Nc2cc([C@@H]3CC[C@H](OC(=O)NC[C@@H]4CCCO4)C3)[nH]n2)ccn1` [Example 497, (1S,3R)-3-(3-{[(2-methoxypyridin-4-yl)acetyl]amino}-1H-pyrazol-5-yl)cyclopentyl [(2S)-tetrahydrofuran-2-ylmethyl]carbamate], the Ki amounted to 4.38 nM.

For the compound `O=C(Cc1cc(F)cc(F)c1)Nc1cc([C@@H]2CC[C@H](OC(=O)NC[C@H]3CCCO3)C2)[nH]n1` [Example 498, (1S,3R)-3-(3-{[(3,5-difluorophenyl)acetyl]amino}-1H-pyrazol-5-yl)cyclopentyl [(2R)-tetrahydrofuran-2-ylmethyl]carbamate], the Ki was found to be 4.28 nM.

On to `O=C(Cc1cc(F)cc(F)c1)Nc1cc([C@@H]2CC[C@H](OC(=O)NC[C@@H]3CCCO3)C2)[nH]n1` [Example 499, (1S,3R)-3-(3-{[(3,5-difluorophenyl)acetyl]amino}-1H-pyrazol-5-yl)cyclopentyl [(2S)-tetrahydrofuran-2-ylmethyl]carbamate], for which the Ki was 2.55 nM.

Consider `Cc1ncc(CC(=O)Nc2cc([C@@H]3CC[C@H](OC(=O)NC4CCOCC4)C3)[nH]n2)s1` [Example 500, (1S,3R)-3-(3-{[(2-methyl-1,3-thiazol-5-yl)acetyl]amino}-1H-pyrazol-5-yl)cyclopentyl tetrahydro-2H-pyran-4-ylcarbamate], for which the inhibition constant Ki is 2.36 nM.

Consider `COc1ccc(CC(=O)Nc2cc([C@H]3CC[C@@H](OC(=O)NC4CCOCC4)C3)[nH]n2)cc1` [Example 502, (1R,3S)-3-(3-{[(4-methoxyphenyl)acetyl]amino}-1H-pyrazol-5-yl)cyclopentyl tetrahydro-2H-pyran-4-ylcarbamate], for which the inhibition constant Ki came out at 3.71 nM.

What is called Ki is a dissociation constant, usually derived from enzyme kinetics or from competition with a known ligand.
